Test results: patent US7235560B2, “Pyrimidine derivative as selective COX-2 inhibitors” (priority 2002, dated 2007)

Columns and labels:
COX-1 = COX-1 (Homo sapiens, UniProt P23219); assay: Microsomal assay, inhibition of COX-1; type: biochemical
microsomal h-COX2 = target: T1, microsomal h-COX2 (Homo sapiens, UniProt P35354); assay: Microsomal assay, inhibition of h-COX2 (PGE2 by EIA); type: biochemical; details: microsomal preparation from baculovirus infected SF9 cells; 1 hour preincubation; 0.1 μM arachidonic acid; read-out: COX-2: IC50
T1 construct: made in house; host or cells: baculovirus infected SF9 cells (microsomal preparation)
T1 sequence (P35354 18-604): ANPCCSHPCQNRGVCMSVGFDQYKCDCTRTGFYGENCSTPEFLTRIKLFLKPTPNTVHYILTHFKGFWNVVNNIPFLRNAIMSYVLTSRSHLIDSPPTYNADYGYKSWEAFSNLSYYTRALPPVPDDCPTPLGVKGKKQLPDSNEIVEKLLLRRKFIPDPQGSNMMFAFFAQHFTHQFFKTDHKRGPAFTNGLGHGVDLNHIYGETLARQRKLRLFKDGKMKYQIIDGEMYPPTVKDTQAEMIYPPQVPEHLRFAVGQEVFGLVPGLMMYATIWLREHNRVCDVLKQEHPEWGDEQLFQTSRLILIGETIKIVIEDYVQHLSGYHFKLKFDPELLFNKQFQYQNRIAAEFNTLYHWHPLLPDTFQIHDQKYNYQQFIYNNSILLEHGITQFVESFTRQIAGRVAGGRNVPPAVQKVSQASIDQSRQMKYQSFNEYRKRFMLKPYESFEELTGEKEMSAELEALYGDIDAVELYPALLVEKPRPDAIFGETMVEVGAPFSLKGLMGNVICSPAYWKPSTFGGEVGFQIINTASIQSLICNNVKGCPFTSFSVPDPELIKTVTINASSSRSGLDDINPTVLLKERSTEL
Procedure: Inhibitory activity against microsomal h-COX2 was assessed against a microsomal preparation from baculovirus infected SF9 cells. An aliquot of microsomal preparation was thawed slowly on ice and a 1/40,000 dilution prepared from it into the assay buffer (sterile water, degassed with argon containing 100 mM HEPES (pH 7.4), 10 mM EDTA (pH7.4), 1 mM phenol, 1 mM reduced glutathione, 20 mg/ml gelatin and 0.001 mM Hematin). Once diluted the enzyme solution was then sonicated for 5 seconds (Branson sonicator, setting 4, 1 cm tip) to ensure a homogeneous suspension. 155 μl enzyme solution was then added to each well of a 96-well microtitre plate containing either 5 μl test compound (40× required test concentration) or 5 μl DMSO for controls. Plates were then mixed and incubated at room temperature for 1 hour. Following the incubation period, 40 μl of 0.5 μM arachidonic acid was added to each well to give a final concentration of 0.1 μM. Plates were then mixed and incubated for exactly 10 minutes (room temperature) prior to addition of 25 μl 1M HCl (hydrochloric acid) to each well to stop the reaction. 25 μl of 1M NaOH (sodium hydroxide) was then added to each well to neutralise the solution prior to determination of PGE2 levels by enzyme immunoassay (EIA).
The following IC50 values for inhibition of COX-2 and COX-1 were obtained from the microsomal assay for compounds of the invention: […]

Sequence of COX-1 (P23219 24-599): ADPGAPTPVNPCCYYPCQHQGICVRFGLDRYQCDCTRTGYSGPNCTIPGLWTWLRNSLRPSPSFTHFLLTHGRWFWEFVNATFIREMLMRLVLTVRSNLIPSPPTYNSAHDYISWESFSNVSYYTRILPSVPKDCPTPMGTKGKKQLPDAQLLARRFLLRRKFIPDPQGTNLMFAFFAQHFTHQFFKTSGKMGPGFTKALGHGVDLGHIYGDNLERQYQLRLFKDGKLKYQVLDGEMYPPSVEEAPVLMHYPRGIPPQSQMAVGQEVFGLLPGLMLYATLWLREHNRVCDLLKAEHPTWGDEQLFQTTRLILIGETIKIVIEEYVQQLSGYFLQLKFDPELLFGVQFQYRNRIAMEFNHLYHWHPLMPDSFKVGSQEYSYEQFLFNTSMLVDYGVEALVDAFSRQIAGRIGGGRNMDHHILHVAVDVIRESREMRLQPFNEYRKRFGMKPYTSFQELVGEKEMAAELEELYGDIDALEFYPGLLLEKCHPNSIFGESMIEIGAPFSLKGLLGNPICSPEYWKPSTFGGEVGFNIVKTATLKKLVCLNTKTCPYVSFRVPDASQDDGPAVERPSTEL

## Cc1cc(-c2ccc(S(C)(=O)=O)cn2)nc(NCc2ccccc2)n1 [Example 1]
COX-1
  IC50: 23.1 µM
Microsomal h-COX2
  IC50: 51 nM

## Cc1cccc(CN(C)c2nc(-c3ccc(S(C)(=O)=O)cn3)cc(C(F)(F)F)n2)n1 [Example 3, [4-(5-Methanesulfonyl-pyridin-2-yl)-6-trifluoromethyl-pyrimidin-2-yl]-methyl-(6-methyl-pyridin-2-ylmethyl)-amine]
COX-1
  IC50: 67.1 µM
Microsomal h-COX2
  IC50: 5 nM

## CS(=O)(=O)c1ccc(-c2cc(C(F)(F)F)nc(NC3CCCCC3)n2)nc1 [Example 5, Cyclohexyl-[4-(5-methanesulfonyl-pyridin-2-yl)-6-trifluoromethyl-pyrimidin-2-yl]-amine]
COX-1
  IC50: > 100 µM
Microsomal h-COX2
  IC50: 19 nM
